# According to patent US20200255436A1, “CORTICOTROPIN RELEASING FACTOR RECEPTOR ANTAGONISTS” (Spruce Biosciences, Inc., priority 2019, published 2020):
# Like-named read-outs stand apart in the source and are kept apart here.
# What was measured:
# [1] = Study 1: single escalating oral dose pharmacokinetics, fed and fasted; type: in vivo, human; details: for Cmax / Tmax / AUC(0-inf) / AUC(0-t) / Vd/F / half-life: human, plasma, po; for AUC(0-t): read-out: AUC0-tlast
# Protocol: Study 1 was the first-in-human study that investigated the safety, tolerability, and PK of single-escalating doses of Compound 1, given orally, to healthy adult subjects. […] The data from this study were used for the selection of doses for Study 2.
# In Study 1, Compound 1 was administered to healthy adult subjects as a single PO dose of 2, 10, 50, 150, 400, or 800 mg in the fed state and 150 mg in the fasted state. Absorption occurred moderately late, achieving peak Cmax between 4 to 6 hours following dosing in the fed state.
# When Compound 1 was given in the fed state, median time to reach maximum plasma concentration (Tmax) occurred between 4 and 6 hours.
# As part of this single-dose escalation study, a food effect PK investigation was performed to examine Compound 1 exposures in both the fed and fasted states at the 150-mg dose level. A total of 6 subjects were administered 150 mg Compound 1 in each of these 2 dosing groups. Of these 6 subjects, 4 subjects received Compound 1 at the same dose in both fed and fasted states. […] Table 2 provides a summary of the PK parameters at the 150-mg dose level under both fed and fasted state conditions.
# PK parameters AUC0-∞ and Cmax were analyzed separately for dose proportionality for Compound 1 from 50 to 800 mg when administered in the fed state. […] Dose proportionality across administered doses in the fed state could not be concluded on the basis of AUC0-∞ or Cmax.
# [2] = Solubility in different aqueous media; type: physicochemical; details: for solubility at 24 h: thermodynamic from solid
# [3] = 50 mg, 50 mg single oral dose, fed, geometric mean
# [4] = 150 mg, 150 mg single oral dose, fasted, geometric mean
# [5] = 150 mg, 150 mg single oral dose, fed, geometric mean
# [6] = 400 mg, 400 mg single oral dose, fed, geometric mean
# [7] = 800 mg, 800 mg single oral dose, fed, geometric mean
compound,measurement,setting,value
"CCC(CC)c1cc(C)nc2c(-c3sc(N4CCOCC4)nc3Cl)c(C)nn12 [Compound 1, 4-(4-chloro-5-(2,5-dimethyl-7-(pentan-3-yl)pyrazolo[1,5-a]pyrimidin-3-yl)thiazol-2-yl)morpholine]",CL/F,"[1]; 50 mg single oral dose, fed, geometric mean",302 L/h
same,CL/F,"[1]; 150 mg single oral dose, fasted, geometric mean",454 L/h
same,CL/F,"[1]; 150 mg single oral dose, fed, geometric mean",157 L/h
same,CL/F,"[1]; 400 mg single oral dose, fed, geometric mean",155 L/h
same,CL/F,"[1]; 800 mg single oral dose, fed, geometric mean",165 L/h
same,AUC0-∞ increase for every doubling of dose relative to dose proportionality,"[1]; 50 to 800 mg, fed state",1.74 times
same,"mean AUC0-∞, fed state relative to fasted state",[1]; 150-mg single dose,approximately 3 fold
same,"mean Cmax, fed state relative to fasted state",[1]; 150-mg single dose,~11 fold
same,Cmax,"[1]; 2 mg, 2 mg single oral dose, fed, geometric mean",0.867 ng/mL
same,Tmax,"[1]; 2 mg, 2 mg single oral dose, fed, median, read-out: Tmax",6 h
same,Cmax,"[1]; 10 mg, 10 mg single oral dose, fed, geometric mean",3.01 ng/mL
same,Tmax,"[1]; 10 mg, 10 mg single oral dose, fed, median, read-out: Tmax",4 h
same,AUC(0-inf),[1]; [3],165 ng·h/mL
same,Cmax,[1]; [3],19.5 ng/mL
same,AUC(0-t),[1]; [3],152 ng·h/mL
same,Vd/F,"[1]; 50 mg, 50 mg single oral dose, fed, geometric mean, read-out: VSS/F",8080 L
same,Vd/F,"[1]; 50 mg, 50 mg single oral dose, fed, geometric mean, read-out: VZ/F",13500 L
same,half-life,"[1]; 50 mg, 50 mg single oral dose, fed, geometric mean, read-out: t1/2 (converted)",31 h
same,Tmax,"[1]; 50 mg, 50 mg single oral dose, fed, median, read-out: Tmax",4 h
same,AUC(0-inf),[1]; [4],331 ng·h/mL
same,Cmax,[1]; [4],8.22 ng/mL
same,AUC(0-t),[1]; [4],288 ng·h/mL
same,Vd/F,"[1]; 150 mg, 150 mg single oral dose, fasted, geometric mean, read-out: VSS/F",25200 L
same,Vd/F,"[1]; 150 mg, 150 mg single oral dose, fasted, geometric mean, read-out: VZ/F",25100 L
same,half-life,"[1]; 150 mg, 150 mg single oral dose, fasted, geometric mean, read-out: t1/2 (converted)",38.4 h
same,Tmax,"[1]; 150 mg, 150 mg single oral dose, fasted, median, read-out: Tmax",10.1 h
same,AUC(0-inf),[1]; [5],956 ng·h/mL
same,Cmax,[1]; [5],93.4 ng/mL
same,AUC(0-t),[1]; [5],891 ng·h/mL
same,Vd/F,"[1]; 150 mg, 150 mg single oral dose, fed, geometric mean, read-out: VSS/F",4600 L
same,Vd/F,"[1]; 150 mg, 150 mg single oral dose, fed, geometric mean, read-out: VZ/F",6620 L
same,half-life,"[1]; 150 mg, 150 mg single oral dose, fed, geometric mean, read-out: t1/2 (converted)",29.2 h
same,Tmax,"[1]; 150 mg, 150 mg single oral dose, fed, median, read-out: Tmax",4 h
same,AUC(0-inf),[1]; [6],2580 ng·h/mL
same,Cmax,[1]; [6],207 ng/mL
same,AUC(0-t),[1]; [6],2300 ng·h/mL
same,Vd/F,"[1]; 400 mg, 400 mg single oral dose, fed, geometric mean, read-out: VSS/F",6580 L
same,Vd/F,"[1]; 400 mg, 400 mg single oral dose, fed, geometric mean, read-out: VZ/F",9890 L
same,half-life,"[1]; 400 mg, 400 mg single oral dose, fed, geometric mean, read-out: t1/2 (converted)",44.2 h
same,Tmax,"[1]; 400 mg, 400 mg single oral dose, fed, median, read-out: Tmax",4 h
same,AUC(0-inf),[1]; [7],4850 ng·h/mL
same,Cmax,[1]; [7],382 ng/mL
same,AUC(0-t),[1]; [7],4390 ng·h/mL
same,Vd/F,"[1]; 800 mg, 800 mg single oral dose, fed, geometric mean, read-out: VSS/F",6820 L
same,Vd/F,"[1]; 800 mg, 800 mg single oral dose, fed, geometric mean, read-out: VZ/F",9970 L
same,half-life,"[1]; 800 mg, 800 mg single oral dose, fed, geometric mean, read-out: t1/2 (converted)",41.9 h
same,Tmax,"[1]; 800 mg, 800 mg single oral dose, fed, median, read-out: Tmax",6 h
same,half-life,"[1]; after a single PO dose (fed and fasted state), across dose levels, read-out: Mean half-life (t1/2)",31 to 44 h
same,Tmax,"[1]; single oral doses 2-800 mg, fed state, read-out: median time to reach maximum plasma concentration (Tmax)",4 to 6 h
same,Description (solubility),"[2]; 0.001N HCl, equilibrium pH 3.36",Insoluble
same,Description (solubility),"[2]; 0.01N HCl, equilibrium pH 2.06",Insoluble
same,Description (solubility),"[2]; 0.1N HCl, equilibrium pH 1.06",insoluble
same,Description (solubility),"[2]; 0.1N NaOH, equilibrium pH 11.65",Insoluble
same,Description (solubility),"[2]; FaSSIF, equilibrium pH 5.16",insoluble
same,Description (solubility),"[2]; FaSSIF, equilibrium pH 6.73",Insoluble
same,Description (solubility),"[2]; SGF, equilibrium pH 2.25",Insoluble
same,Description (solubility),"[2]; Water, equilibrium pH 7.78",insoluble
same,solubility at 24 h,"[2]; aqueous buffer, 0.001N HCl, equilibrium pH 3.36, 24 hours at room temperature",0.3 µg/mL
same,solubility at 24 h,"[2]; aqueous buffer, 0.1N NaOH, equilibrium pH 11.65, 24 hours at room temperature",0.2 µg/mL
same,Description (solubility),"[2]; pH 4.5 Acetate (USP), equilibrium pH 4.65",Insoluble
same,solubility at 24 h,"[2]; pH 4.5 acetate buffer (USP), aqueous buffer, pH 4.5 Acetate (USP), equilibrium pH 4.65, 24 hours at room temperature",0.5 µg/mL
same,Description (solubility),"[2]; pH 6.0 Phosphate (USP), equilibrium pH 6.08",Insoluble
same,solubility at 24 h,"[2]; pH 6.0 phosphate buffer (USP), aqueous buffer, pH 6.0 Phosphate (USP), equilibrium pH 6.08, 24 hours at room temperature",0.2 µg/mL
same,Description (solubility),"[2]; pH 7.5 Phosphate (USP), equilibrium pH 7.57",Insoluble
same,solubility at 24 h,"[2]; pH 7.5 phosphate buffer (USP), aqueous buffer, pH 7.5 Phosphate (USP), equilibrium pH 7.57, 24 hours at room temperature",0.6 µg/mL
same,solubility at 24 h,"[2]; simulated gastric fluid, 0.01N HCl, equilibrium pH 2.06, 24 hours at room temperature",0.4 µg/mL
same,solubility at 24 h,"[2]; simulated gastric fluid, 0.1N HCl, equilibrium pH 1.06, 24 hours at room temperature",1.8 µg/mL
same,solubility at 24 h,"[2]; simulated gastric fluid, SGF, equilibrium pH 2.25, 24 hours at room temperature",20.4 µg/mL
same,solubility at 24 h,"[2]; FaSSIF, equilibrium pH 5.16, 24 hours at room temperature",10.4 µg/mL
same,solubility at 24 h,"[2]; FaSSIF, equilibrium pH 6.73, 24 hours at room temperature",3.6 µg/mL
same,solubility at 24 h,"[2]; Water, equilibrium pH 7.78, 24 hours at room temperature, n = 2",0.3 µg/mL
